One data set concerns thrombomodulin (TM). Nature of the data set: Thrombomodulin in BAL fluid by Western blot, flu induced ALI. In kind it is in vivo, mice. The settings on record: FIG. 13. Background: A western blot detects proteins with antibodies after separation by electrophoresis.
Data set [1] has as its system mice with LPS/IC induced ALI. In words: Two hit model of LPS/IC induced acute lung injury, Lung Injury Score from pulmonary histopathology. It counts as in vivo. The settings on record: Table 5; intranasal treatment after LPS, before ICs; samples 14 h after IC; score 0 to 2; means ± SD, 4-5 animals per group. The procedure: BALB/c mice (Taconic Germantown, N.Y.) were first injected intraperitoneally (i.p.) with either LPS or saline and 8 h later received anti-KC:KC immune complexes or saline (control) by intranasal (i.n.) route. Anti-KC:KC immune complexes were prepared according to the protocol routinely used in our laboratory (28). Some mice received Btk specific siRNA intranasally. In other experiments the animals were treated i.n. with siRNA specific for Btk (see SEQ ID NOs:18-25) or MMP-9 (Invitrogen), both conjugated (T3™-MAX Conjugation Kit (Bioo Scientific Corporation, Austin, Tex.) to F(ab′)2 fragments of anti-mouse neutrophil antibody Ly-6G1A8). F(ab′)2 fragments alone or conjugated to control siRNA (SEQ ID NO's 26 and 27) (Invitrogen) served as controls of the treatment. Two or fourteen hours after i.n. administration of either immune complexes or saline, the animals were euthanized and samples collected for further evaluation. To study role of neutrophil FcγRIII receptors neutrophils were first depleted by i.p. injection of vinblastine (31) followed by adoptive transfer of cells deficient in FcγRIII receptors prepared as described below. […] Lung dysfunction was assessed by analysis of pulmonary histopathology.
Pulmonary Histopathology: Lungs were fixed in ExCellPlus (AMTS, Lodi, Calif.), embedded in paraffin, and sectioned at 5 μm. […] The images of stained sections were evaluated for the presence of alveolar exudate, infiltration of inflammatory cells, and interstitial thickening. Lung Injury Score (LIS) was assessed as described earlier (28). Most images were assessed at magnification of over 400×. […] At the minimum twenty sections from each group of mice were evaluated and 4 investigators participated in the analysis of 50 or more fields per group. According to recommendation of “An Official American Thoracic Society Workshop Report: Features and Measurements of Experimental Acute Lung Injury in Animals” (Am J Respir Cell Mol Biol 44 725-738, 2011) more than 20 high power fields were independently scored (as described above) and at least 50% of each field was occupied by lung alveoli. […]

For a further data set, the system named is alveolar neutrophils. In words: Uptake of alveolar neutrophils by mouse spleen macrophages (co-culture 1 h). It counts as cell-based. The settings on record: neutrophils from treated LPS/IC ALI mice versus ALI; FIG. 5B. On the procedure: Neutrophil Apoptosis/Uptake: Purified alveolar neutrophils were evaluated for the presence of cleaved caspase 3 as done routinely in our laboratory (13). Cells mounted on cytospins were incubated with anti-mouse cleaved caspase 3 antibody (Cell Signaling Technology, Danvers, Mass.), followed by dye-conjugated secondary antibody. Fluorescence intensity of cleaved caspase 3 was analyzed as described above. In addition, alveolar neutrophils were co-cultured with mouse spleen macrophages for 1 h (43, 44), and percentage of phagocytosed neutrophils was calculated. In separate sets of experiments bone marrow neutrophils (BMPMNs) were purified according to the previously published protocol (54) and cultivated for 24 h to induce spontaneous apoptosis. Some cells were cultured in the presence of LPS and anti-KC:KC immune complexes. In other experiments, BMPMNs were treated with siRNA specific for Btk (Santa Cruz Biotechnology) conjugated to F(ab′)2 fragments of the Ly6G1A8 antibody. Similarly conjugated control siRNA (Santa Cruz Biotechnology) or F(ab′)2 fragments of the Ly6G1A8 alone served as controls.
In other experiments, purified alveolar neutrophils were co-cultured with mouse spleen macrophages for 1 h, and the percentage of phagocytosed neutrophils was assessed by counting numbers of neutrophils present inside macrophages. […]

Take “Cont siRNA: control siRNA #8 (SEQ ID NO:26/27) conjugated to F(ab′)2 fragments of Ly6G1A8 (chain 1 UUCCUCUCCACGCGCAGUACAUUUA; chain 2 AAGGAGAGGUGCGCGUCAUGUAAAU; conjugated to antibody F(ab')2 fragment, attachment not given here; one strand is listed 3' to 5')”: the “levels of TM in BAL fluid” value in the data set on thrombomodulin (TM) was “significantly increased levels”. In data set [1], the “Lung Injury Score: Edema fluid” value stood at 1.337 ± 0.170, the “Lung Injury Score: Inflammatory infiltration” value came out at 1.824 ± 0.141 and the “Lung Injury Score: Thickening of alveolar septa” value was found to be 1.607 ± 0.276. In addition, the “uptake (phagocytosis) of apoptotic alveolar neutrophils by macrophages” value in the data set on alveolar neutrophils is given as “no effect”.

These data come from patent US9982265B2, “Inhibition of Bruton's tyrosine kinase (Btk) in the lung to treat severe lung inflammation and lung injury” (BOARD OF REGENTS, THE UNIVERSITY OF TEXAS SYSTEM, priority 2014, dated 2018).
